{"source": "patent US6399629B1", "about": "“Efflux pump inhibitors” (priority 1998, dated 2002)", "tested_on": "Pseudomonas aeruginosa PAM1001", "test": "checkerboard assay (broth microdilution): levofloxacin MIC in presence of efflux pump inhibitor", "format": "cell-based", "how_it_was_run": "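Checkerboard broth microdilution in Mueller Hinton Broth against P. aeruginosa PAM1001 (5×10^5 CFU/mL, early-log inoculum), levofloxacin and efflux pump inhibitor (up to 40 μg/mL) diluted along crossing axes. Plates incubated 20 h at 35° C; growth read at 650 nm and visually. Potentiation scored as reduced levofloxacin MIC.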"}
{"smiles": "NCC(=O)N[C@H]1CN[C@H](c2nc3ccccc3n2CCc2ccccc2)C1", "note": "[Compound M75, (2S,4R)-4-(2-Aminoacetamido)-2-(1-(2-phenyl)ethyl-2-benzimidazolyl)pyrrolidine]", "values": [{"measurement": "Levofloxacin MIC Against P. aerugiuosa PAM1001 in Presence of Efflux Pump Inhibitor (EPI), Minimum Inhibitory Concentration", "setting": "EPI Conc. 0 μg/mL", "result": 4, "unit": "µg/mL"}, {"measurement": "Levofloxacin MIC Against P. aerugiuosa PAM1001 in Presence of Efflux Pump Inhibitor (EPI), Minimum Inhibitory Concentration", "setting": "EPI Conc. 0.625 μg/mL", "result": 4, "unit": "µg/mL"}, {"measurement": "Levofloxacin MIC Against P. aerugiuosa PAM1001 in Presence of Efflux Pump Inhibitor (EPI), Minimum Inhibitory Concentration", "setting": "EPI Conc. 1.25 μg/mL", "result": 4, "unit": "µg/mL"}, {"measurement": "Levofloxacin MIC Against P. aerugiuosa PAM1001 in Presence of Efflux Pump Inhibitor (EPI), Minimum Inhibitory Concentration", "setting": "EPI Conc. 2.5 μg/mL", "result": 4, "unit": "µg/mL"}, {"measurement": "Levofloxacin MIC Against P. aerugiuosa PAM1001 in Presence of Efflux Pump Inhibitor (EPI), Minimum Inhibitory Concentration", "setting": "EPI Conc. 5 μg/ mL", "result": 4, "unit": "µg/mL"}, {"measurement": "Levofloxacin MIC Against P. aerugiuosa PAM1001 in Presence of Efflux Pump Inhibitor (EPI), Minimum Inhibitory Concentration", "setting": "EPI Conc. 10 μg/mL", "result": 4, "unit": "µg/mL"}, {"measurement": "Levofloxacin MIC Against P. aerugiuosa PAM1001 in Presence of Efflux Pump Inhibitor (EPI), Minimum Inhibitory Concentration", "setting": "EPI Conc. 20 μg/mL", "result": 1, "unit": "µg/mL"}, {"measurement": "Levofloxacin MIC Against P. aerugiuosa PAM1001 in Presence of Efflux Pump Inhibitor (EPI), Minimum Inhibitory Concentration", "setting": "EPI Conc. 40 μg/mL", "result": 0.03, "unit": "µg/mL"}]}
{"smiles": "NC[C@@H]1CN[C@@H](CO[C@H](CCc2ccccc2)C(=O)Nc2cnc3ccccc3c2)C1", "note": "[Compound M70, (2R,4R)-4-(Amiomethyl)-2-[((1R)-3-phenyl-1-(3-quiolylcarbamoyl)propyl)oxymethyl]pyrrolidie]", "values": [{"measurement": "Levofloxacin MIC Against P. aerugiuosa PAM1001 in Presence of Efflux Pump Inhibitor (EPI), Minimum Inhibitory Concentration", "setting": "EPI Conc. 0 μg/mL", "result": 4, "unit": "µg/mL"}, {"measurement": "Levofloxacin MIC Against P. aerugiuosa PAM1001 in Presence of Efflux Pump Inhibitor (EPI), Minimum Inhibitory Concentration", "setting": "EPI Conc. 0.625 μg/mL", "result": 4, "unit": "µg/mL"}, {"measurement": "Levofloxacin MIC Against P. aerugiuosa PAM1001 in Presence of Efflux Pump Inhibitor (EPI), Minimum Inhibitory Concentration", "setting": "EPI Conc. 1.25 μg/mL", "result": 2, "unit": "µg/mL"}, {"measurement": "Levofloxacin MIC Against P. aerugiuosa PAM1001 in Presence of Efflux Pump Inhibitor (EPI), Minimum Inhibitory Concentration", "setting": "EPI Conc. 2.5 μg/mL", "result": 1, "unit": "µg/mL"}, {"measurement": "Levofloxacin MIC Against P. aerugiuosa PAM1001 in Presence of Efflux Pump Inhibitor (EPI), Minimum Inhibitory Concentration", "setting": "EPI Conc. 5 μg/ mL", "result": 1, "unit": "µg/mL"}, {"measurement": "Levofloxacin MIC Against P. aerugiuosa PAM1001 in Presence of Efflux Pump Inhibitor (EPI), Minimum Inhibitory Concentration", "setting": "EPI Conc. 10 μg/mL", "result": 0.125, "unit": "µg/mL"}, {"measurement": "Levofloxacin MIC Against P. aerugiuosa PAM1001 in Presence of Efflux Pump Inhibitor (EPI), Minimum Inhibitory Concentration", "setting": "EPI Conc. 20 μg/mL", "result": 0.125, "unit": "µg/mL"}, {"measurement": "Levofloxacin MIC Against P. aerugiuosa PAM1001 in Presence of Efflux Pump Inhibitor (EPI), Minimum Inhibitory Concentration", "setting": "EPI Conc. 40 μg/mL", "result": 0.06, "unit": "µg/mL"}]}
{"smiles": "Cc1ccc2ncc(C(=O)NC[C@H]3C[C@H](CN)CN3)cc2c1", "note": "[Compound M72, (2R,4R)-4-(Aminomethyl)-2-(6-methyl-3-quinolylcarboxamidomethyl)pyrrolidine]", "values": [{"measurement": "Levofloxacin MIC Against P. aerugiuosa PAM1001 in Presence of Efflux Pump Inhibitor (EPI), Minimum Inhibitory Concentration", "setting": "EPI Conc. 0 μg/mL", "result": 4, "unit": "µg/mL"}, {"measurement": "Levofloxacin MIC Against P. aerugiuosa PAM1001 in Presence of Efflux Pump Inhibitor (EPI), Minimum Inhibitory Concentration", "setting": "EPI Conc. 0.625 μg/mL", "result": 4, "unit": "µg/mL"}, {"measurement": "Levofloxacin MIC Against P. aerugiuosa PAM1001 in Presence of Efflux Pump Inhibitor (EPI), Minimum Inhibitory Concentration", "setting": "EPI Conc. 1.25 μg/mL", "result": 4, "unit": "µg/mL"}, {"measurement": "Levofloxacin MIC Against P. aerugiuosa PAM1001 in Presence of Efflux Pump Inhibitor (EPI), Minimum Inhibitory Concentration", "setting": "EPI Conc. 2.5 μg/mL", "result": 4, "unit": "µg/mL"}, {"measurement": "Levofloxacin MIC Against P. aerugiuosa PAM1001 in Presence of Efflux Pump Inhibitor (EPI), Minimum Inhibitory Concentration", "setting": "EPI Conc. 5 μg/ mL", "result": 4, "unit": "µg/mL"}, {"measurement": "Levofloxacin MIC Against P. aerugiuosa PAM1001 in Presence of Efflux Pump Inhibitor (EPI), Minimum Inhibitory Concentration", "setting": "EPI Conc. 10 μg/mL", "result": 4, "unit": "µg/mL"}, {"measurement": "Levofloxacin MIC Against P. aerugiuosa PAM1001 in Presence of Efflux Pump Inhibitor (EPI), Minimum Inhibitory Concentration", "setting": "EPI Conc. 20 μg/mL", "result": 2, "unit": "µg/mL"}, {"measurement": "Levofloxacin MIC Against P. aerugiuosa PAM1001 in Presence of Efflux Pump Inhibitor (EPI), Minimum Inhibitory Concentration", "setting": "EPI Conc. 40 μg/mL", "result": 0.5, "unit": "µg/mL"}]}
{"smiles": "NC[C@@H]1CN[C@@H](COc2ccc3ccccc3n2)C1", "note": "[Compound M71, (2R,4R)-4-(Aminomethyl)-2 (2-quiolyloxymethyl)pyrrolidne]", "values": [{"measurement": "Levofloxacin MIC Against P. aerugiuosa PAM1001 in Presence of Efflux Pump Inhibitor (EPI), Minimum Inhibitory Concentration", "setting": "EPI Conc. 0 μg/mL", "result": 4, "unit": "µg/mL"}, {"measurement": "Levofloxacin MIC Against P. aerugiuosa PAM1001 in Presence of Efflux Pump Inhibitor (EPI), Minimum Inhibitory Concentration", "setting": "EPI Conc. 0.625 μg/mL", "result": 4, "unit": "µg/mL"}, {"measurement": "Levofloxacin MIC Against P. aerugiuosa PAM1001 in Presence of Efflux Pump Inhibitor (EPI), Minimum Inhibitory Concentration", "setting": "EPI Conc. 1.25 μg/mL", "result": 4, "unit": "µg/mL"}, {"measurement": "Levofloxacin MIC Against P. aerugiuosa PAM1001 in Presence of Efflux Pump Inhibitor (EPI), Minimum Inhibitory Concentration", "setting": "EPI Conc. 2.5 μg/mL", "result": 4, "unit": "µg/mL"}, {"measurement": "Levofloxacin MIC Against P. aerugiuosa PAM1001 in Presence of Efflux Pump Inhibitor (EPI), Minimum Inhibitory Concentration", "setting": "EPI Conc. 5 μg/ mL", "result": 4, "unit": "µg/mL"}, {"measurement": "Levofloxacin MIC Against P. aerugiuosa PAM1001 in Presence of Efflux Pump Inhibitor (EPI), Minimum Inhibitory Concentration", "setting": "EPI Conc. 10 μg/mL", "result": 4, "unit": "µg/mL"}, {"measurement": "Levofloxacin MIC Against P. aerugiuosa PAM1001 in Presence of Efflux Pump Inhibitor (EPI), Minimum Inhibitory Concentration", "setting": "EPI Conc. 20 μg/mL", "result": 2, "unit": "µg/mL"}, {"measurement": "Levofloxacin MIC Against P. aerugiuosa PAM1001 in Presence of Efflux Pump Inhibitor (EPI), Minimum Inhibitory Concentration", "setting": "EPI Conc. 40 μg/mL", "result": 0.5, "unit": "µg/mL"}]}
